According to paper PMC6142691, “Cannabidiol enhances morphine antinociception, diminishes NMDA-mediated seizures and reduces stroke damage via the sigma 1 receptor” (Molecular Brain, 2018):

Assays:
sigma 1 receptor (σ1R) [1] = target: T1, sigma 1 receptor (σ1R) (Mus musculus, UniProt O55242); test: in vitro pull-down: reversal of progesterone/CBD-induced disruption of recombinant σ1R-NR1 complex; assay type: biochemical; set-up: gene Sigmar1; murine full-length (1–223) σ1R, recombinant from E. coli, GST-free; with NMDAR NR1 subunit C-terminal region (residues 827–938)
T1 sequence (O55242 whole entry, the tested form may be a part): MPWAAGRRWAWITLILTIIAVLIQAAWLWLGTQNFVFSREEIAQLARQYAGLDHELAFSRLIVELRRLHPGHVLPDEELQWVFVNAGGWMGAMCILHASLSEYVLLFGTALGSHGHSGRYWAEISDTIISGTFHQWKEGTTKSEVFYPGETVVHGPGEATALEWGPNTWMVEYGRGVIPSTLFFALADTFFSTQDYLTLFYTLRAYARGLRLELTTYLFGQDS
T1 sequence (P35438 827-938 partner): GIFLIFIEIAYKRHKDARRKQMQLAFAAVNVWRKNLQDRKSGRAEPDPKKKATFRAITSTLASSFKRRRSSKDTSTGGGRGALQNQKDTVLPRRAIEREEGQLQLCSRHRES

sigma 1 receptor (σ1R) [2] = target: T1, sigma 1 receptor (σ1R); test: biochemical; set-up: gene Sigmar1
sigma 1 receptor (σ1R) [3] = target: T1, sigma 1 receptor (σ1R); test: in vitro pull-down: disruption of recombinant σ1R-NR1 complex, immunoblot; assay type: binding; set-up: gene Sigmar1; murine full-length (1–223) σ1R, recombinant from E. coli, GST-free; with NMDAR NR1 subunit C-terminal region (residues 827–938)

SMILES	in vitro pull-down: reversal of progesterone/CBD-induced disruption of recombina (sigma 1 receptor (σ1R) [1])	EC50 (sigma 1 receptor (σ1R) [3]) [pM]	also measured
O=C(NC1CCN(Cc2ccccc2)CC1)c1ccc(I)cc1 [4-IBP]	PPCC, PRE084 and 4-IBP did not alter σ1R-NR1 associations but reduced the capacity of progesterone and CBD		
COC(=O)[C@]1(c2ccc(C)cc2)C[C@@H]1CN1CCC(O)(c2ccccc2)CC1 (racemic) [PPCC]			Ki (sigma 1 receptor (σ1R) [2]): 60 pM
O=C(OCCN1CCOCC1)C1(c2ccccc2)CCCCC1 [PRE084]	PPCC, PRE084 and 4-IBP did not alter σ1R-NR1 associations but reduced the capacity of progesterone and CBD		
CN1CCN(CCc2ccc(Cl)c(Cl)c2)CC1 [BD1063]		~30	
CC(=O)[C@H]1CC[C@H]2[C@@H]3CCC4=CC(=O)CC[C@]4(C)[C@H]3CC[C@]12C [Progesterone]		~30	
C=C(C)[C@@H]1CCC(C)=C[C@H]1c1c(O)cc(CCCCC)cc1O [CBD, Cannabidiol]		~100	
